This is an account of results in US8501754B2, “Quinazolinamide derivatives” (MERCK PATENT GmbH, priority 2007, dated 2013).

This assay deals with Recombinant human HSP90a (Homo sapiens, UniProt P07900). The assay is described as follows: radioligand filter binding test ([3H]17AAG competition) for HSP90 inhibition. The conditions noted are these: competition with [3H]17AAG 0.08 μM, HSP90 1.5 μg/assay, 22° C., 30 min. The text has this: Test Method for the Measurement of HSP90 Inhibitors
The binding of geldanamycin or 17-allylamino-17-demethoxygeldanamycin (17AAG) to HSP90 and competitive inhibition thereof can be utilized in order to determine the inhibitory activity of the compounds according to the invention (Carreras et al. 2003, Chiosis et al. 2002).
In the specific case, a radioligand filter binding test is used. The radioligand used here is tritium-labelled 17-allylaminogeldanamycin, [3H]17AAG. This filter binding test allows a targeted search for inhibitors which interfere with the ATP binding site.
Recombinant human HSP90a (E. coli expressed, 95% purity);
[3H]17AAG (17-allylaminogeldanamycin, [allylamino-2,3-^3H. Specific activity: 1.11×10^12 Bq/mmol (Moravek, MT-1717);
HEPES filter buffer (50 mM HEPES, pH 7.0, 5 mM MgCl2, BSA 0.01%) Multiscreen FB (1 μm) filter plate (Millipore, MAFBNOB 50).
The 96-well microtitre filter plates are firstly irrigated and coated with 0.1% of polyethylenimine.
The test is carried out under the following conditions:
Reaction temperature 22° C.
Reaction time: 30 min., shaking at 800 rpm
50 mM HEPES HCl, pH 7.0, 5 mM MgCl2, 0.01% (w/v) of BSA
At the end of the reaction, the supernatant in the filter plate is removed by suction with the aid of a vacuum manifold (Multiscreen Separation System, Millipore), and the filter is washed twice.
The filter plates are then measured in a beta counter (Microbeta, Wallac) with scintillator (Microscint 20, Packard).
“% of control” is determined from the “counts per minutes” values, and the IC-50 value of a compound is calculated therefrom.

The IC50 is the midpoint of a concentration-inhibition curve. Turning to `CN(C)CCNCc1ccccc1-c1ccc2nc(N)nc(C(=O)N3Cc4ccccc4C3)c2c1` [Compound A973], the IC50 was 0.01 to 1 µM. With `Nc1nc(C(=O)N2Cc3ccccc3C2)c2cc(NC3CCC(O)CC3)ccc2n1` (stereo not drawn) [Compound A951], the IC50 lay in the range of 1 to 10 µM. As for `N#CCc1cccc(-c2ccc3nc(N)nc(C(=O)N4Cc5ccccc5C4)c3c2)c1` [Compound A919, 2-Amino-6-(3-cyanomethylphenyl)-4-(1,3-dihydroisoindol-2-ylcarbonyl)quinazoline], the IC50 was 0.01 to 1 µM.

For the compound `COCCNCc1ccccc1-c1ccc2nc(N)nc(C(=O)N3Cc4ccccc4C3)c2c1` [Compound A976], the IC50 was in the range of 0.01 to 1 µM. For the compound `CCc1ccc2nc(N)nc(C(=O)N(CC)CC)c2c1` [Compound A98, 2-Amino-6-ethyl-4-diethylcarbamoylquinazoline], the IC50 lay within 1 to 10 µM. The value for `Nc1nc(C(=O)N2Cc3ccccc3C2)c2cc(Oc3ccccc3)ccc2n1` [Compound A946] was 0.01 to 1 µM; that for `Nc1nc(C(=O)N2Cc3ccccc3C2)c2cc(-c3ccccc3CN3CCNCC3)ccc2n1` [Compound A971] was 0.01 to 1 µM; that for `CN1CCN(c2ccc3nc(N)nc(C(=O)N4Cc5ccccc5C4)c3c2)CC1` [Compound A941] was 1 to 10 µM.

Turning to `Nc1nc(C(=O)N2Cc3ccccc3C2)c2cc(-c3ccccc3CN3CCOCC3)ccc2n1` [Compound A974], the IC50 lay in the range of 0.01 to 1 µM.

Take `NC(=O)c1ccccc1-c1ccc2nc(N)nc(C(=O)N3Cc4ccccc4C3)c2c1` [Compound A310]: the IC50 lay in the range of 0.01 to 1 µM. Next, `Nc1nc(C(=O)N2Cc3ccccc3C2)c2cc(-c3ccccc3OC(F)(F)F)ccc2n1` [Compound A240]: 0.01 to 1 µM; `CN(C)CCN(C)S(=O)(=O)c1ccccc1-c1ccc2nc(N)nc(C(=O)N3Cc4ccccc4C3)c2c1` [Compound A982]: 0.01 to 1 µM; `CCN(CC)C(=O)c1nc(N)nc2ccc(-c3ccccc3)cc12` [Compound A138, 2-Amino-6-phenyl-4-diethylcarbamoylquinazoline]: 1 to 10 µM.

With `Nc1nc(C(=O)N2Cc3ccccc3C2)c2cc(-c3ccccc3S(=O)(=O)N3CCNCC3)ccc2n1` [Compound A981], the IC50 is 0.01 to 1 µM.

Regarding `CC(C)N(C)C(=O)c1nc(N)nc2ccccc12` [Compound A8, 2-Amino-4-isopropylmethylcarbamoylquinazoline], the half-maximal inhibitory concentration (IC50) was more than 10 µM.
